Like-named read-outs stand apart in the source and are kept apart here.
Assays:
[1] = biological target: T1, MIF-CD74 Binding (biotin-labeled recombinant human MIF, recombinant human MIF receptor CD74 ectodomain) (Homo sapiens, UniProt P14174); experiment: MIF-CD74 binding (capture) assay; parameters: concentration of C74 % MaxInhib (number after @): unit not given here; settings: for CD74 % MaxInhib / C74 % MaxInhib: number before @; for concentration of C74 % MaxInhib (number after @) / C74 % MaxInhib: Table 18
T1 sequence (P14174 2-115 limits assumed): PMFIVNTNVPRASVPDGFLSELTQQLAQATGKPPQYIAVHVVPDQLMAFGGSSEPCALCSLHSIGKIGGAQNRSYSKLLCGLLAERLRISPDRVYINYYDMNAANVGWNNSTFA

[2] = biological target: T2, Human MIF (MIF tautomerase activity) (Homo sapiens, UniProt P14174); experiment: HPP tautomerase assay; assay type: biochemical; settings: for IC50: read-out: HPP IC50
T2 construct: made in house
T2 sequence (P14174 2-115 limits assumed): T1 sequence (P14174 2-115 limits assumed)
Description: The HPP assay used was adapted to the microtiter plate format. […] Dilutions of the enzyme were prepared in 50 mM sodium phosphate buffer, 1 mM EDTA, pH 6.5. HPP was obtained from Aldrich. A stock solution of 60 mM HPP in ethanol is prepared and kept for maximally 4 hours on ice. The working solution (600 μM) of the substrate was prepared by diluting an aliquot of the stock solution with 50 mM sodium phosphate buffer, 1 mM EDTA, pH 6.5. […] Inhibitor and enzyme solutions were pipetted manually using an Eppendorf 12-channel pipette. Addition of substrate to start the reaction was performed with an Igel 96 pipetting station (OpalJena, Jena, Germany), which allows simultaneous addition of fluid to all 96 wells of the plates. Optical density (OD) was determined using a SPECTRAmax 250 reader (Molecular Devices). The reader was operated with the SoftmaxPro 2.6.1 software. Assay: Three wells of the microtiter plates were filled with buffer only, to allow for blanking. […] The last step was performed using the 96-channel pipetting device. The plate was then immediately (i.e. within a few seconds) transferred manually to the SPECTRAmax 250 reader and the optical density was determined (310 nm). From the data obtained, IC50 values were calculated using Excel® and XLfit® software.

[3] = Table 13, data cell c5, number before @
[4] = Table 7, data cell c6, number before @

`COC(=O)c1cccc(Cn2cc(-c3ccc(O)cc3)nn2)c1` [MIF-036] was tested, and the IC50 ([1]; Table 19, data cell c5, read-out: CD74 IC50) was 1.2 µM and the IC50 ([2]; Table 19, data cell c6) was 2.5 µM.
For `NC(=O)c1nc2ccccc2n1Cc1ccccc1` [MIF-062], the “concentration of CD74 % MaxInhib (number after @)” value (shortened to “concentration of CD74 % MaxInhib”) ([1]; Table 5) was 1.87 µM, the “CD74 % MaxInhib” value ([1]; Table 5) was 25% and the “HPP Max Inhib” value ([2]; Table 5) was 16%.
With `CN(C)C(=O)c1nc2ccccc2n1Cc1ccccc1` [MIF-063] the “concentration of CD74 % MaxInhib” value ([1]; Table 5) was 1.87 µM, the “CD74 % MaxInhib” value ([1]; Table 5) was 27% and the “HPP Max Inhib” value ([2]; Table 5) was 0%.
For `CNC(=O)c1nc2ccccc2n1Cc1ccccc1` [MIF-065], the “concentration of CD74 % MaxInhib” value ([1]; Table 5) was 1.87 µM, the “CD74 % MaxInhib” value ([1]; Table 5) was 16% and the “HPP Max Inhib” value ([2]; Table 5) was 13%.
For `COCCc1nc2ccccc2n1Cc1ccccc1` [MIF-066], the “concentration of CD74 % MaxInhib” value ([1]; Table 5) was 1.87 µM, the “CD74 % MaxInhib” value ([1]; Table 5) was 25% and the “HPP Max Inhib” value ([2]; Table 5) was 18%.
`Oc1ccc(-n2cc(Cc3ccccc3)nn2)cc1F` [MIF-069] was tested, and the “concentration of C74 % MaxInhib (number after @)” value (“concentration of C74 % MaxInhib” below) [1] was 0.0078, the “C74 % MaxInhib” value [1] was 14% and the IC50 ([2]; Table 18) was 760 µM.
In the case of `COc1ccccc1Cc1cn(-c2ccc(O)cc2)nn1` [MIF-070], the “concentration of C74 % MaxInhib” value [1] is reported as 0.0078, the “C74 % MaxInhib” value [1] is reported as 14% and the “concentration of HPP Max Inhib (number after @)” value (“concentration of HPP Max Inhib” for short) ([2]; Table 18) is reported as 1000. The “HPP Max Inhib” value ([2]; Table 18, number before @) was 35%.
In the case of `Oc1ccc(-n2cc(Cc3ccccc3O)nn2)cc1` [MIF-071], the “concentration of C74 % MaxInhib” value [1] is reported as 0.24, the “C74 % MaxInhib” value [1] is reported as 9% and the IC50 ([2]; Table 18) is reported as 1000 µM.
With `O=C(c1cc2ccccc2o1)c1cc2cc(O)ccc2o1` [MIF-072] the “concentration of CD74 % MaxInhib” value ([1]; Table 13) was 0.24 µM, the “CD74 % MaxInhib” value ([1]; Table 13) was 9% and the “concentration of HPP Max Inhib” value ([2]; Table 13) was 1000 µM. For the same compound, the “HPP Max Inhib” value [2, 3] was 30%.
`O=C(c1cc2ccccc2o1)c1cc2cc(F)ccc2o1` [MIF-073] was tested, and the “concentration of CD74 % MaxInhib” value ([1]; Table 13) was 0.12 µM, the “CD74 % MaxInhib” value ([1]; Table 13) was 17% and the “concentration of HPP Max Inhib” value ([2]; Table 13) was 700 µM. For the same compound, the “HPP Max Inhib” value [2, 3] was 33%.
`COc1cccc(Cc2cn(-c3ccc(O)cc3)nn2)c1` [MIF-074] was tested, and the “concentration of C74 % MaxInhib” value [1] was 0.24, the “C74 % MaxInhib” value [1] was 8% and the “concentration of HPP Max Inhib” value ([2]; Table 18) was 1000. The “HPP Max Inhib” value ([2]; Table 18, number before @) was 40%.
In the case of `COc1cccc(C(=O)c2cn(-c3ccc(O)cc3)nn2)c1` [MIF-076], the “concentration of C74 % MaxInhib” value [1] is reported as 0.0078, the “C74 % MaxInhib” value [1] is reported as 12% and the IC50 ([2]; Table 18) is reported as 790 µM.
For `Cc1ccc2cc(C(=O)c3cc4ccccc4o3)oc2c1` [MIF-077], the “concentration of CD74 % MaxInhib” value ([1]; Table 13) was 0.24 µM, the “CD74 % MaxInhib” value ([1]; Table 13) was 16% and the “concentration of HPP Max Inhib” value ([2]; Table 13) was 1000 µM. For the same compound, the “HPP Max Inhib” value [2, 3] was 30%.
In the case of `Cc1cccc(Cc2cn(-c3ccc(O)cc3)nn2)c1` [MIF-079], the “concentration of C74 % MaxInhib” value [1] is reported as 0.078, the “C74 % MaxInhib” value [1] is reported as 30% and the IC50 ([2]; Table 18) is reported as 475 µM.
`COc1ccc2cc(C(=O)N3CCc4ccccc43)oc2c1` [MIF-083] was tested, and the “concentration of CD74 % MaxInhib” value ([1]; Table 14) was 0.078 µM, the “CD74 % MaxInhib” value ([1]; Table 14) was 12% and the “concentration of HPP Max Inhib” value ([2]; Table 14) was 3 µM. The “HPP Max Inhib” value ([2]; Table 14, number before @) was 33%.
In the case of `COc1ccc(Cc2cn(-c3ccc(O)cc3)nn2)cc1` [MIF-086], the “concentration of C74 % MaxInhib” value [1] is reported as 0.078, the “C74 % MaxInhib” value [1] is reported as 36% and the IC50 ([2]; Table 18) is reported as 65 µM.
For `Oc1ccc(Cc2cn(-c3ccc(O)cc3)nn2)cc1` [MIF-087], the “concentration of C74 % MaxInhib” value [1] was 0.078, the “C74 % MaxInhib” value [1] was 23% and the IC50 ([2]; Table 18) was 690 µM.
For `COc1ccc2oc(C(=O)N3CCc4ccccc43)cc2c1` [MIF-088], the “concentration of CD74 % MaxInhib” value ([1]; Table 14) was 0.24 µM, the “CD74 % MaxInhib” value ([1]; Table 14) was 30% and the “concentration of HPP Max Inhib” value ([2]; Table 14) was 5 µM. The “HPP Max Inhib” value ([2]; Table 14, number before @) was 23%.
For `O=C(c1cc2cc(F)ccc2o1)N1CCc2ccccc21` [MIF-089], the “concentration of CD74 % MaxInhib” value ([1]; Table 14) was 0.12 µM, the “CD74 % MaxInhib” value ([1]; Table 14) was 30% and the “concentration of HPP Max Inhib” value ([2]; Table 14) was 1 µM. The “HPP Max Inhib” value ([2]; Table 14, number before @) was 19%.
For `COc1ccc(Cc2cn(-c3ccc(O)cc3)nn2)cc1OC` [MIF-090], the “concentration of C74 % MaxInhib” value [1] was 0.078, the “C74 % MaxInhib” value [1] was 22% and the IC50 ([2]; Table 18) was 70 µM.
With `Cc1ccc2c(c1)CCN2C(=O)c1cc2ccccc2o1` [MIF-094] the “concentration of CD74 % MaxInhib” value ([1]; Table 14) was 0.95 µM, the “CD74 % MaxInhib” value ([1]; Table 14) was 33% and the IC50 ([2]; Table 14) was 760 µM.
In the case of `Cc1ccc2c(c1)N(C(=O)c1cc3ccccc3o1)CC2` [MIF-095], the “concentration of CD74 % MaxInhib” value ([1]; Table 14) is reported as 0.039 µM, the “CD74 % MaxInhib” value ([1]; Table 14) is reported as 33% and the IC50 ([2]; Table 14) is reported as 910 µM.
With `O=C(c1cc2ccccc2o1)N1CCc2cc(F)ccc21` [MIF-096] the “concentration of CD74 % MaxInhib” value ([1]; Table 14) was 1.87 µM, the “CD74 % MaxInhib” value ([1]; Table 14) was 19% and the IC50 ([2]; Table 14) was 1360 µM.
With `Clc1ccc2nc(-c3ccccc3)oc2c1` [MIF-120] the “concentration of CD74 % MaxInhib” value ([1]; Table 7) was 0.078 µM, the “CD74 % MaxInhib” value ([1]; Table 7, data cell c7) was 11% and the “concentration of HPP % MaxInhib (number after @)” value (shortened to “concentration of HPP % MaxInhib”) ([2]; Table 7) was 0.1 µM. For the same compound, the “HPP % MaxInhib” value [2, 4] was 13%.
For `Clc1ccc(-c2nc3ccc(Cl)cc3o2)cc1` [MIF-121], the “concentration of CD74 % MaxInhib” value ([1]; Table 7) was 0.078 µM, the “CD74 % MaxInhib” value ([1]; Table 7, data cell c7) was 27% and the “HPP % MaxInhib” value [2, 4] was 43%.
`Clc1ccc(-c2nc3cc(Cl)ccc3o2)cc1` [MIF-122] was tested, and the “concentration of CD74 % MaxInhib” value ([1]; Table 7) was 3.76 µM, the “CD74 % MaxInhib” value ([1]; Table 7, data cell c7) was 13% and the “HPP % MaxInhib” value [2, 4] was 31%.
For `Cc1ccc2nc(-c3ccc(Cl)cc3)oc2c1` [MIF-123], the “concentration of CD74 % MaxInhib” value ([1]; Table 7) was 3.76 µM, the “CD74 % MaxInhib” value ([1]; Table 7, data cell c7) was 26% and the “concentration of HPP % MaxInhib” value ([2]; Table 7) was 50 µM. For the same compound, the “HPP % MaxInhib” value [2, 4] was 14%.
For `Cc1ccc2oc(-c3ccc(Cl)cc3)nc2c1` [MIF-124], the “concentration of CD74 % MaxInhib” value ([1]; Table 7) was 0.078 µM, the “CD74 % MaxInhib” value ([1]; Table 7, data cell c7) was 11% and the “concentration of HPP % MaxInhib” value ([2]; Table 7) was 1000 µM. The “HPP % MaxInhib” value [2, 4] was 29%.
In the case of `O=C1c2cc(F)ccc2CN1c1ccc(Cl)cc1` [MIF-125], the “concentration of CD74 % MaxInhib” value ([1]; Table 9) is reported as 0.12 µM, the “CD74 % MaxInhib” value ([1]; Table 9) is reported as 19% and the “HPP % MaxInhib” value ([2]; Table 9, number before @) is reported as 45%.
For `O=C1c2ccc(F)cc2CN1c1ccc(Cl)cc1` [MIF-126], the “concentration of CD74 % MaxInhib” value ([1]; Table 9) was 0.078 µM, the “CD74 % MaxInhib” value ([1]; Table 9) was 7% and the “concentration of HPP % MaxInhib” value ([2]; Table 9) was 100 µM. For the same compound, the “HPP % MaxInhib” value ([2]; Table 9, number before @) was 32%.
For `Fc1ccc2cc(-c3ccc(Cl)cc3)[nH]c2c1` [MIF-127], the “concentration of CD74 % MaxInhib” value ([1]; Table 10) was 0.34 µM, the “CD74 % MaxInhib” value ([1]; Table 10) was 22% and the IC50 ([2]; Table 10) was 240 µM.
